“And” between values parts separate entries of the source, which are not always exact repeats. Equal values may be shown once. Inconclusive results and toxic doses are left out. The calls were made as follows: active = survival T/C of 150% or more; inactive = T/C below 125% in these data.
System: P388 leukemia ip, CD2F1 mice, survival T/C
Experiment: NCI In Vivo Anticancer Drug Screen. Data for tumor model P388 Leukemia (intraperitoneal) in CD2F1 (CDF1) mice
Settings: endpoint: median survival time, higher = longer survival
How it was run: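 Mice carrying the transplanted tumor received test compound or vehicle. Survival was recorded in each group, and the value is the treated-group measurement divided by that of the vehicle-treated control group.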

[1] = dose: 50.0 mg/kg/injection, schedule: Q01DX009 (ip), vehicle: saline with Tween-80
[2] = dose: 100.0 mg/kg/injection, schedule: Q01DX009 (ip), vehicle: saline with Tween-80
[3] = dose: 200.0 mg/kg/injection, schedule: Q01DX009 (ip), vehicle: saline with Tween-80
[4] = dose: 100.0 mg/kg/injection, schedule: Q01DX001 (ip), vehicle: saline with Tween-80
[5] = dose: 12.5 mg/kg/injection, schedule: Q01DX009 (ip), vehicle: saline with Tween-80
[6] = dose: 25.0 mg/kg/injection, schedule: Q01DX009 (ip), vehicle: saline with Tween-80

Measured: T/C

COC(=O)CC12CC3(C)CC(C)(C1)CC(CC(=O)OC)(C3)C2
inactive: [1] 99 % of control | [2] 99 % of control and 108 % of control | [3] 103 % of control and 113 % of control

CC(N=Cc1cccs1)c1ccccc1 (configuration not stated)
inactive: dose: 100.0 mg/kg/injection, schedule: Q04DX003 (ip), vehicle: saline 98 % of control | dose: 200.0 mg/kg/injection, schedule: Q04DX003 (ip), vehicle: saline 95 % of control | dose: 400.0 mg/kg/injection, schedule: Q04DX003 (ip), vehicle: saline 99 % of control

CN(C)CCOc1ccc2c(c1)C/C(=C/c1ncc([N+](=O)[O-])n1C)C2=O
inactive: dose: 11.0 mg/kg/injection, schedule: Q01DX009 (ip), vehicle: saline with Tween-80 124 % of control | dose: 15.0 mg/kg/injection, schedule: Q01DX009 (ip), vehicle: saline with Tween-80 109 % of control and 117 % of control | dose: 22.0 mg/kg/injection, schedule: Q01DX009 (ip), vehicle: saline with Tween-80 124 % of control | dose: 30.0 mg/kg/injection, schedule: Q01DX009 (ip), vehicle: saline with Tween-80 119 % of control | dose: 60.0 mg/kg/injection, schedule: Q01DX009 (ip), vehicle: saline with Tween-80 117 % of control | dose: 180.0 mg/kg/injection, schedule: Q01DX009 (ip), vehicle: saline with Tween-80 87 % of control

CCOC(=O)CCCCSCCCCC(=O)OCC
inactive: [4] 100 % of control | dose: 200.0 mg/kg/injection, schedule: Q01DX001 (ip), vehicle: saline with Tween-80 100 % of control | dose: 400.0 mg/kg/injection, schedule: Q01DX001 (ip), vehicle: saline with Tween-80 100 % of control

O=C(NC(Cc1c[nH]c2ccccc12)C(=O)O)OCC1c2ccccc2-c2ccccc21 (configuration not stated)
inactive: dose: 50.0 mg/kg/injection, schedule: Q01DX005 (ip), vehicle: Klucel (hydroxypropylcellulose) (HPC) 100 % of control | dose: 100.0 mg/kg/injection, schedule: Q01DX005 (ip), vehicle: Klucel (hydroxypropylcellulose) (HPC) 95 % of control

O=C1Nc2ccccc2C(O)(c2ccccc2)N1Cc1ccccc1 (configuration not stated)
inactive: dose: 6.25 mg/kg/injection, schedule: Q01DX009 (ip), vehicle: saline with Tween-80 91 % of control | [5] 100 % of control | [6] 88 % of control | dose: 200.0 mg/kg/injection, schedule: Q01DX009 (ip), vehicle: saline 87 % of control

O=C(OCC1OC(n2ccc(=S)[nH]c2=O)C(OC(=O)c2ccccc2)C1OC(=O)c1ccccc1)c1ccccc1 (configuration not stated)
inactive: dose: 12.5 mg/kg/injection, schedule: Q01DX005 (ip), vehicle: saline with Tween-80 102 % of control | dose: 25.0 mg/kg/injection, schedule: Q01DX005 (ip), vehicle: saline with Tween-80 91 % of control | dose: 50.0 mg/kg/injection, schedule: Q01DX005 (ip), vehicle: saline with Tween-80 91 % of control and 95 % of control | dose: 200.0 mg/kg/injection, schedule: Q01DX005 (ip), vehicle: saline with Tween-80 87 % of control

Cc1ccc(N/N=C2\CC(=O)NC(=O)N2)cc1C
inactive: [1] 104 % of control | [2] 104 % of control | [3] 99 % of control

Cc1ccc(SSC(=S)Nc2ccccc2)cc1
inactive: [5] 93 % of control | [6] 90 % of control | [1] 100 % of control and 114 % of control | [2] 114 % of control

COC(=O)C1CC(c2ccccc2)N(C(C)(C)C)O1 (configuration not stated)
inactive: dose: 100.0 mg/kg/injection, schedule: Q04DX002 (ip), vehicle: saline with Tween-80 97 % of control | dose: 200.0 mg/kg/injection, schedule: Q04DX002 (ip), vehicle: saline with Tween-80 100 % of control | dose: 400.0 mg/kg/injection, schedule: Q04DX002 (ip), vehicle: saline with Tween-80 100 % of control

CC(C)(C)NC/C(C#N)=C\c1ccccc1
inactive: dose: 25.0 mg/kg/injection, schedule: Q01DX001 (ip), vehicle: saline with Tween-80 102 % of control | dose: 50.0 mg/kg/injection, schedule: Q01DX001 (ip), vehicle: saline with Tween-80 99 % of control | [4] 97 % of control

CC(C)C1=CC(=O)C2=C(CCC3C(C)(C(=O)O)CCC[C@]23C)C1=O (some centres not stated)
inactive: dose: 6.0 mg/kg/injection, schedule: Q01DX005 (ip), vehicle: Klucel (hydroxypropylcellulose) (HPC) 102 % of control | dose: 12.0 mg/kg/injection, schedule: Q01DX005 (ip), vehicle: Klucel (hydroxypropylcellulose) (HPC) 104 % of control | dose: 24.0 mg/kg/injection, schedule: Q01DX005 (ip), vehicle: Klucel (hydroxypropylcellulose) (HPC) 100 % of control | dose: 48.0 mg/kg/injection, schedule: Q01DX005 (ip), vehicle: Klucel (hydroxypropylcellulose) (HPC) 99 % of control

Reference: PubChem BioAssay AID330 (DTP/NCI, 2004)
